One data set concerns HG-3 CLL cells. The experiment in a line: Annexin V/PI apoptotic assay (FACS). The data set is classed as cell-based. To be noted: 48 h. How it is done:
(§1) The pro-apoptotic effects of the selected nitrovinylanthracene compounds 19a, 19g, 19i, 19l and 19m after 48 h were next determined using FITC (fluorescein isothiocyanate), Annexin V/PI (propidium iodide) staining and FACS (fluorescence-activated cell sorting) analysis to characterize the mode of cellular death induced. […] The CLL cells PGA1 and HG3 (1 × 10^6 cells/mL) were treated at 37 °C with either vehicle (1% (v/v) DMSO) or the nitrostyrene compounds 19a (10 μM, 5 μM and 1 μM) and 19g, 19i, 19l and 19m (10 μM and 1 μM) for 48 h. The cells were then harvested by centrifugation at 400× g in a temperature-controlled Sorvall centrifuge and rinsed with 0.5 mL of Ca^2+ Annexin-V-binding buffer (0.1 M HEPES, pH 7.4; 0.14 M NaCl; 25 mM CaCl2). The samples were resuspended in 50 µL FITC Annexin V (diluted 1:33 in Ca^2+ Annexin V-binding buffer), incubated on ice for 10 min (protected from light), washed with Annexin-V-binding buffer and re-suspended in 500 µL of propidium iodide (PI) solution (0.5 µg/mL). The samples were analysed within 1 h using a BD Accuri C6 flow cytometer counting 10,000 cells and analysed using the FlowJo software (FlowJo LLC, Ashland, OR, USA) package.

The next data set relates to PGA-1 CLL cells. Briefly: Annexin V/PI apoptotic assay (FACS). The data set is classed as cell-based. To be noted: PGA-1, 10 μM, 48 h. How it is done:
as §1

For data set [1], the system named is MUTU-I Burkitt’s lymphoma cell line. The experiment in a line: alamarBlue cell viability assay. To be noted: MUTU-I, 24 h; for viability at 1 µM: read-out: % Viable Cells Remaining MUTU-1, 1 µM, 24 h; for viability at 10 µM: read-out: % Viable Cells Remaining MUTU-1, 10 µM, 24 h.
Data set [2] has as its system DG-75 Burkitt’s lymphoma cell line. Briefly: alamarBlue cell viability assay. To be noted: Homo sapiens, DG-75, 48 h; for viability at 1 µM: read-out: % Viable Cells Remaining DG-75, 1 µM, 48 h; for viability at 10 µM: read-out: % Viable Cells Remaining DG-75, 10 µM, 48 h.
Another data set has as its system HG-3 CLL cell line. The experiment in a line: alamarBlue cell viability assay. To be noted: for viability at 1 µM / viability at 10 µM / IC50: CLL cell, 24 h; for viability at 1 µM: read-out: % Viability HG-3, 1 µM, 24 h; for viability at 10 µM: read-out: % Viability HG-3, 10 µM, 24 h; for IC50: read-out: HG-3 IC50, 24 h.
Another data set concerns PGA-1 CLL cell line. The experiment in a line: alamarBlue cell viability assay. The following applies: CLL cell, 24 h; for viability at 10 µM: read-out: % Viability PGA-1, 10 µM, 24 h; for IC50: read-out: PGA-1 IC50, 24 h.
The next data set can be described thus: physchem. The data set is classed as physicochemical. The following applies: buffer. As for the experimental part:
A preliminary HPLC stability study was performed on a representative nitrovinylanthracene compound 19m (isopropyl) in various biologically relevant pH systems (acidic pH 4 found in the stomach, basic pH 9 found in the intestine and pH 7.4 in the plasma). […] Based on the results of this stability study, the compound 19m was determined to be suitable for further preclinical investigation.

The subject of a further data set is Bjab BL cell line. The experiment in a line: alamarBlue cell viability assay. To be noted: Homo sapiens, 24 h. The data set is classed as cell-based. As for the experimental part:
(§2) Cells were seeded at a density of 2.5 × 10^4 cells/well (MCF-7, MDA-MB-231 cells), 1 × 10^4 cells/well (HL-60 cells), 1–5 × 10^4 cells per well (BL MUTU-I, DG-75 cells) and 2 × 10^5 cells/well [HG-3, PGA-1 (CLL cells)], Ramos, BJAB (BL cells) (200 μL per well), in 96-well plates. Cells were treated with the desired drug concentration for the appropriate time for each cell type, and the samples were incubated as required. alamarBlue (20 μL) was then added to each well and the samples further incubated in the dark at 37 °C for 4 h. Wells containing only reagent and cell culture medium in the absence of cells were used as blank controls. Ethanol was used as a vehicle, and cells were treated with 1% ethanol (v/v) in all experiments. The 96-well plates were analysed on a fluorescence plate reader (SpectraMax Gemini, Molecular Devices) (emission and excitement wavelengths of 590 nm and 544 nm, respectively), and the fluorescence was recorded. The decrease in cell viability was then calculated with reference to the vehicle samples (100% viability). EMEM medium with the addition of alamarBlue was used as a blank. Vehicle-treated cells were considered to be 100% viable, and the viabilities of each compound was calculated accordingly. […] All biochemical assays were performed in triplicate on at least three independent occasions, and the mean values were determined.

A further data set has as its system Ramos BL cell line. The experiment in a line: alamarBlue cell viability assay. The data set is classed as cell-based. To be noted: Homo sapiens, 24 h. As for the experimental part: as §2
The next data set has as its system DG-75 BL cells. The experiment in a line: Annexin V/PI apoptotic assay (FACS). The data set is classed as cell-based. The following applies: 48 h. As for the experimental part: (§3) The chemotherapeutic drug taxol was used as a positive control. The pro-apoptotic effects of the selected nitrostyrene compounds 11g, 11h, 11i, 11j, 11k and 11l (10 μM) were determined using FITC (fluorescein isothiocyanate), Annexin V/PI (propidium iodide) staining and FACS (fluorescence-activated cell sorting) analysis to characterise the mode of cellular death induced by the synthesised compounds. Four populations were produced in this assay: Annexin-V- and PI-negative (Q4, healthy cells), Annexin-V-positive and PI-negative (Q3, early apoptosis), Annexin-V- and PI-positive (Q2, late apoptosis) and Annexin-V-negative and PI-positive (Q1, necrosis), which were easily identified and quantified. Apoptosis was assessed as % total apoptosis by a combination of early and late apoptosis (Q3 and Q2, respectively). […] The identification of compounds that can induce apoptosis in cancer cells is required in the development of potential lead structures for anticancer drugs.
(§4) The BL cells DG-75 and MUTU-I (750,000) were treated at 37 °C with either vehicle (0.1% (v/v) EtOH), […] taxol (10 μM) and incubated for 24 h (MUTU-1) or 48 h (DG-75). The CLL cells PGA1 and HG3 (1 × 10^6 cells/mL) were treated at 37 °C with either vehicle (1% (v/v) DMSO) or the nitrostyrene compounds 19a (10 μM, 5 μM and 1 μM) and 19g, 19i, 19l and 19m (10 μM and 1 μM) for 48 h. The cells were then harvested by centrifugation at 400× g in a temperature-controlled Sorvall centrifuge and rinsed with 0.5 mL of Ca^2+ Annexin-V-binding buffer (0.1 M HEPES, pH 7.4; 0.14 M NaCl; 25 mM CaCl2). The samples were resuspended in 50 µL FITC Annexin V (diluted 1:33 in Ca^2+ Annexin V-binding buffer), incubated on ice for 10 min (protected from light), washed with Annexin-V-binding buffer and re-suspended in 500 µL of propidium iodide (PI) solution (0.5 µg/mL). The samples were analysed within 1 h using a BD Accuri C6 flow cytometer counting 10,000 cells and analysed using the FlowJo software (FlowJo LLC, Ashland, OR, USA) package.

A further data set has as its system MUTU-I BL cells. The experiment in a line: Annexin V/PI apoptotic assay (FACS). The data set is classed as cell-based. The following applies: 24 h. As for the experimental part: as §3, §4
The subject of data set [3] is DG-75 Burkitt’s lymphoma cell line. To be noted: human, 48 h, 1 µM.
The next data set deals with MUTU-1 cells. More on the design: method as in earlier work. To be noted: nitrostyrenes and taxol, MTT assay, reported data; cited from earlier work.
In a further data set the test system is DG-75 cells. More on the design: method as in earlier work. The following applies: nitrostyrenes and taxol, MTT assay, reported data; cited from earlier work.
Data set [4] deals with MUTU-I Burkitt’s lymphoma cell line. To be noted: read-out: IC50 MUTU-I; previous work; cited from earlier work.
In data set [5] the test system is DG-75 Burkitt’s lymphoma cell line. The following applies: cited from earlier work.
The test system of data set [6] is HeLa cervical cancer cells. Briefly: alamarBlue cell viability assay. To be noted: Homo sapiens, 24 h.
The test system of data set [7] is MCF-7 human breast cancer cells. The experiment in a line: alamarBlue cell viability assay. The following applies: MCF7, 72 h.
Data set [8] concerns HL-60 promyelocytic leukaemia cells. The experiment in a line: alamarBlue cell viability assay. To be noted: Homo sapiens, HL-60, 24 h.
The mark [9] stands for this setting: 10 µM, total (early + late) apoptosis.

A value given as a limit tells only on which side of the number the result lay.

The text below walks through data of publication PMC10746112, “Synthesis and Pro-Apoptotic Effects of Nitrovinylanthracenes and Related Compounds in Chronic Lymphocytic Leukaemia (CLL) and Burkitt’s Lymphoma (BL)” (Molecules, 2023).

In the case of `CCc1c2ccccc2c(/C=C/[N+](=O)[O-])c2ccccc12` [Compound 19l, (E)-9-Ethyl-10-(2-Nitrovinyl)Anthracene], the total apoptosis in the data set on HG-3 CLL cells (HG-3, 10 μM) stood at 74%; in the data set with PGA-1 CLL cells, 82%. Also, the viability at 1 µM in [1] came out at 72.7%; in data set [2] it was 104%; in the data set on HG-3 CLL cell line it was 78%. The viability at 10 µM in data set [1] is 0.5%; in [2] it was 4.04%; in the data set on HG-3 CLL cell line it was 0.5%; in the data set on PGA-1 CLL cell line, 2.7%. The 50% inhibitory concentration (IC50) turned out to be 5400 nM in the data set with HG-3 CLL cell line and 1300 nM in the data set with PGA-1 CLL cell line.

With `CC(C)c1c2ccccc2c(/C=C/[N+](=O)[O-])c2ccccc12` [Compound 19m, (E)-9-Isopropyl-10-(2-Nitrovinyl)Anthracene], the total apoptosis is recorded as 25% with HG-3 CLL cells (HG-3, 1 μM); 69% in the data set on HG-3 CLL cells (HG-3, 10 μM); 74% with PGA-1 CLL cells. Also, the half-life in “physchem” (pH 4) is > 24 h; in the data set “physchem” (pH 7.4) it was > 24 h; in “physchem” (pH 9), 19 h. For the same molecule, the amount remaining at 24 h in the data set “physchem” (pH 4) was 55%; in the data set “physchem” (pH 7.4), 56%; in the data set “physchem” (pH 9), 42%. Also, the viability at 1 µM in data set [1] came to 78.4%; in data set [2] it was 85.2%; with HG-3 CLL cell line it was 82%. Also, the viability at 10 µM in data set [1] was determined as 0.21%; in [2], 28.1%; in the data set on HG-3 CLL cell line it was 0.9%; with PGA-1 CLL cell line it was 2.9%. Besides, the IC50 with HG-3 CLL cell line worked out at 700 nM; in the data set with PGA-1 CLL cell line, 9100 nM. In addition, the “fold greater response (IC50) in HG-3 compared to PGA-1 cells” value in the data set on HG-3 CLL cell line (ratio of IC50 values) stood at 13 fold.

Take `CC(=O)O[C@H]1C(=O)[C@@]2(C)[C@H]([C@H](OC(=O)c3ccccc3)[C@]3(O)C[C@H](OC(=O)[C@H](O)[C@@H](NC(=O)c4ccccc4)c4ccccc4)C(C)=C1C3(C)C)[C@]1(OC(C)=O)CO[C@@H]1C[C@@H]2O` [Taxol, taxol, reference compound]: the viability at 1 µM in the data set on Bjab BL cell line (read-out: % Viable Cells Remaining Bjab 24 h 1 µM) is 97.6%; in the data set with Ramos BL cell line (read-out: % Viable Cells Remaining Ramos 24 h 1 µM), 69.3%; in data set [1] it was 32%; in [2], > 90%; in [6] (read-out: % Viable Cells Remaining HeLa 24 h 1 µM), 86.9%; in data set [7] (read-out: % Viable Cells Remaining MCF-7 72 h 1 µM) it was 101%. Further, the viability at 1 µM in data set [8] (read-out: % Viable Cells Remaining HL60 24 h 1 µM) was 97.6%. Also, the viability at 10 µM in the data set on Bjab BL cell line (read-out: % Viable Cells Remaining Bjab 24 h 10 µM) is 80.2%; with Ramos BL cell line (read-out: % Viable Cells Remaining Ramos 24 h 10 µM), 24.9%; in [1], 7%; in [2], 40%; in data set [6] (read-out: % Viable Cells Remaining HeLa 24 h 10 µM), 48.4%; in data set [7] (read-out: % Viable Cells Remaining MCF-7 72 h 10 µM), 75%. In addition, the viability at 10 µM in data set [8] (read-out: % Viable Cells Remaining HL60 24 h 10 µM) amounted to 69.7%. Also, the “DG-75 Apoptosis (%)” value with DG-75 BL cells (1 µM) is 20.7%; with DG-75 BL cells (setting [9]) it was 72.8%. Moreover, the “MUTU-I Apoptosis (%)” value in the data set with MUTU-I BL cells (1 µM) was determined as 62.8%; with MUTU-I BL cells (setting [9]), 87.3%; in the data set with MUTU-I BL cells (10 µM, total (early + late) apoptosis, listed as taxol), 87%. The “% Viable Cells Remaining DG-75” value in data set [3] turned out to be 90.0%. For the same molecule, the IC50 in the data set on MUTU-1 cells is 300 nM; in the data set with DG-75 cells, 1320 nM; in data set [4] it was 320 nM; in [5] (read-out: IC50 DG-75, previous work), 1320 nM. For the same molecule, the “% Viable Cells Remaining DG-75 48 h 1 µM” value in data set [5] was >90%.
